This assay has as its system monocytic THP1 cells infected with HIV VSV-G pseudotyped GFP-NEF reporter virus. The assay is described as follows: cells. Type of assay: cell-based. The following applies: Human immunodeficiency virus 1, THP-1, 24 h.

In patent US20250333424A1, “ANTIVIRAL COMPOUNDS” (Gilead Sciences, Inc., priority 2024, published 2025) one finds EC50 data, which are given here for 19 compounds.

The EC50 is the concentration that produces a half-maximal response.

`Cc1cc(/C=C/C#N)cc(C)c1Oc1nc(NC23CC(C#N)(C2)C3)nc2c1[C@H]1OCCCN1C2=O` [Compound 280, (R,E)-3-((4-(4-(2-cyanovinyl)-2,6-dimethylphenoxy)-10-oxo-4b,7,8,10-tetrahydro-6H-pyrimido[5′,4′:3,4]pyrrolo[2,1-b][1,3]oxazin-2-yl)amino)bicyclo[1.1.1]pentane-1-carbonitrile] had an EC50 of 33.7 nM.

`Cc1cc(/C=C/C#N)cc(C)c1Oc1nc(NC23CC(C#N)(C2)C3)nc2c1C(O)NC2=O` (stereo not shown) [Compound 286, (E)-3-((4-(4-(2-cyanovinyl)-2,6-dimethylphenoxy)-5-hydroxy-7-oxo-6,7-dihydro-5H-pyrrolo[3,4-d]pyrimidin-2-yl)amino)bicyclo[1.1.1]pentane-1-carbonitrile] returned an EC50 of 72.4 nM.

For `COC1NC(=O)c2nc(NC34CC(C#N)(C3)C4)nc(Oc3c(C)cc(/C=C/C#N)cc3C)c21` (stereo not shown) [Compound 287, (E)-3-((4-(4-(2-cyanovinyl)-2,6-dimethylphenoxy)-5-methoxy-7-oxo-6,7-dihydro-5H-pyrrolo[3,4-d]pyrimidin-2-yl)amino)bicyclo[1.1.1]pentane-1-carbonitrile], the EC50 was 26.2 nM.

On to `CCOC1NC(=O)c2nc(NC34CC(C#N)(C3)C4)nc(Oc3c(C)cc(/C=C/C#N)cc3C)c21` (stereo not shown) [Compound 288, (E)-3-((4-(4-(2-cyanovinyl)-2,6-dimethylphenoxy)-5-ethoxy-7-oxo-6,7-dihydro-5H-pyrrolo[3,4-d]pyrimidin-2-yl)amino)bicyclo[1.1.1]pentane-1-carbonitrile], for which the EC50 was found to be 29.8 nM.

As for `Cc1cc(/C=C/C#N)cc(C)c1Oc1nc(NC23CC(C#N)(C2)C3)nc2c1C(OCC(F)F)NC2=O` (stereo not shown) [Compound 289, (E)-3-((4-(4-(2-cyanovinyl)-2,6-dimethylphenoxy)-5-(2,2-difluoroethoxy)-7-oxo-6,7-dihydro-5H-pyrrolo[3,4-d]pyrimidin-2-yl)amino)bicyclo[1.1.1]pentane-1-carbonitrile], the midpoint of the response, the EC50, lay at 52.9 nM.

In turn, `Cc1cc(/C=C/C#N)cc(C)c1Oc1nc(NC23CC(C#N)(C2)C3)nc2c(=O)n(C)[nH]c12` [Compound 290, (E)-3-((7-(4-(2-cyanovinyl)-2,6-dimethylphenoxy)-2-methyl-3-oxo-2,3-dihydro-1H-pyrazolo[4,3-d]pyrimidin-5-yl)amino)bicyclo[1.1.1]pentane-1-carbonitrile] yielded an EC50 of 387 nM.

As to `Cc1cc(/C=C/C#N)cc(C)c1Oc1nc(NC23CC(C#N)(C2)C3)nc2c(=O)n(C)n(C)c12` [Compound 291, (E)-3-((7-(4-(2-cyanovinyl)-2,6-dimethylphenoxy)-1,2-dimethyl-3-oxo-2,3-dihydro-1H-pyrazolo[4,3-d]pyrimidin-5-yl)amino)bicyclo[1.1.1]pentane-1-carbonitrile], the response was half-maximal at 31.1 nM (EC50).

As for `Cc1cc(/C=C/C#N)cc(C)c1Oc1nc(NC23CC(C#N)(C2)C3)nc2c(=O)n(C)n(C(F)F)c12` [Compound 292, (E)-3-((7-(4-(2-cyanovinyl)-2,6-dimethylphenoxy)-1-(difluoromethyl)-2-methyl-3-oxo-2,3-dihydro-1H-pyrazolo[4,3-d]pyrimidin-5-yl)amino)bicyclo[1.1.1]pentane-1-carbonitrile], the response was half-maximal at 58.8 nM (EC50).

As to `COc1n[nH]c2c(Oc3c(C)cc(/C=C/C#N)cc3C)nc(NC34CC(C#N)(C3)C4)nc12` [Compound 293, (E)-3-((7-(4-(2-cyanovinyl)-2,6-dimethylphenoxy)-3-methoxy-1H-pyrazolo[4,3-d]pyrimidin-5-yl)amino)bicyclo[1.1.1]pentane-1-carbonitrile], the EC50 was determined as 56.3 nM.

The compound `CCOc1nn(CC)c2c(Oc3c(C)cc(/C=C/C#N)cc3C)nc(NC34CC(C#N)(C3)C4)nc12` [Compound 294, (E)-3-((7-(4-(2-cyanovinyl)-2,6-dimethylphenoxy)-3-ethoxy-1-ethyl-1H-pyrazolo[4,3-d]pyrimidin-5-yl)amino)bicyclo[11.1.1]pentane-1-carbonitrile] yielded an EC50 of 23.3 nM.

`Cc1cc(/C=C/C#N)cc(C)c1Oc1nc(NC23CC(C#N)(C2)C3)nc2c(=O)n3n(c12)CCC3` [Compound 295, (E)-3-((4-(4-(2-cyanovinyl)-2,6-dimethylphenoxy)-10-oxo-7,8-dihydro-6H,10H-pyrazolo[1′,2′:1,2]pyrazolo[4,3-d]pyrimidin-2-yl)amino)bicyclo[1.1.1]pentane-1-carbonitrile] registered an EC50 of 55.3 nM.

`Cc1cc(/C=C/C#N)cc(C)c1Oc1nc(NC23CC(C#N)(C2)C3)nc2snc(C)c12` [Compound 296, (E)-3-((4-(4-(2-cyanovinyl)-2,6-dimethylphenoxy)-3-methylisothiazolo[5,4-d]pyrimidin-6-yl)amino)bicyclo[1.1.1]pentane-1-carbonitrile]: the response was half-maximal at 59.5 nM (EC50).

For `Cc1cc(/C=C/C#N)cc(C)c1Oc1nc(NC23CC(C#N)(C2)C3)nc2c1c(C)n[s+]2[O-]` (stereo not shown) [Compound 297, (E)-3-((4-(4-(2-cyanovinyl)-2,6-dimethylphenoxy)-3-methyl-1-oxidoisothiazolo[5,4-d]pyrimidin-6-yl)amino)bicyclo[1.1.1]pentane-1-carbonitrile], the midpoint of the response, the EC50, lay at 159 nM.

`CCOc1nc2nc(NC34CC(C#N)(C3)C4)nc(Oc3c(C)cc(/C=C/C#N)cc3C)c2n1C` [Compound 298, (E)-3-((6-(4-(2-cyanovinyl)-2,6-dimethylphenoxy)-8-ethoxy-7-methyl-7H-purin-2-yl)amino)bicyclo[1.1.1]pentane-1-carbonitrile] had an EC50 of 87.3 nM.

Turning to `Cc1cc(/C=C/C#N)cc(C)c1Oc1nc(NC23CC(C#N)(C2)C3)nc2nn3ccccc3c12` [Compound 299, (E)-3-((4-(4-(2-cyanovinyl)-2,6-dimethylphenoxy)pyrido[1′,2′:1,5]pyrazolo[3,4-d]pyrimidin-2-yl)amino)bicyclo[1.1.1]pentane-1-carbonitrile], the EC50 is 40.1 nM.

`Cc1cc(/C=C/C#N)cc(C)c1Oc1nc(NC23CC(C#N)(C2)C3)nc2occ(C)c12` [Compound 300, (E)-3-((4-(4-(2-cyanovinyl)-2,6-dimethylphenoxy)-5-methylfuro[2,3-d]pyrimidin-2-yl)amino)bicyclo[1.1.1]pentane-1-carbonitrile] registered a half-maximal effective concentration (EC50) of 87.6 nM.

For the compound `Cc1cc(/C=C/C#N)cc(C)c1Oc1nc(NC23CC(C#N)(C2)C3)nc2nn3c(c12)OCCC3` [Compound 301, (E)-3-((4-(4-(2-cyanovinyl)-2,6-dimethylphenoxy)-7,8-dihydro-6H-pyrimido[4′,5′:3,4]pyrazolo[5,1-b][1,3]oxazin-2-yl)amino)bicyclo[1.1.1]pentane-1-carbonitrile], the EC50 worked out at 50.7 nM.

In turn, `Cc1cc(/C=C/C#N)cc(C)c1Oc1nc(NC23CC(C#N)(C2)C3)nc2[nH]cc(C)c12` [Compound 302, (E)-3-((4-(4-(2-cyanovinyl)-2,6-dimethylphenoxy)-5-methyl-7H-pyrrolo[2,3-d]pyrimidin-2-yl)amino)bicyclo[1.1.1]pentane-1-carbonitrile] showed an EC50 of 211 nM.

In the case of `Cc1cc(/C=C/C#N)cc(C)c1Oc1nc(NC23CC(C#N)(C2)C3)nc2[nH]c(C)c(C)c12` [Compound 303, (E)-3-((4-(4-(2-cyanovinyl)-2,6-dimethylphenoxy)-5,6-dimethyl-7H-pyrrolo[2,3-d]pyrimidin-2-yl)amino)bicyclo[1.1.1]pentane-1-carbonitrile], the response was half-maximal at 232 nM (EC50).
